According to patent US9073821B2, “Hydroxamic acid derivative” (priority 2010, dated 2015):

Each molecule was assayed against Pseudomonas aeruginosa LpxC enzyme (Pseudomonas aeruginosa (strain ATCC 15692 / DSM 22644 / CIP 104116 / JCM 14847 / LMG 12228 / 1C / PRS 101 / PAO1), UniProt P47205) (assay: biochemical). Details: class symbols A/B/C by IC50; Table 3; read-out: Enzyme inhibitory activity (inhibitory activity on Pseudomonas aeruginosa LpxC enzyme).
Assay type: biochemical

Row | IC50 | SMILES
1 | < 10 nM | CNC(=O)C(C(=O)NO)N(C)C(=O)c1ccc(C#Cc2ccc(CN(C)Cc3ccccc3)cc2)cc1 (stereo not shown) [Compound 495, 2-[({4-[(4-{[benzyl(methyl)amino]methyl}phenyl)ethynyl]phenyl}carbonyl)(methyl)amino]-N-hydroxy-N′-methylpropanediamide]
2 | < 10 nM | CCOC1CN(Cc2ccc(C#Cc3ccc(C(=O)N(C)C(C(=O)NC)C(=O)NO)cc3)c(C)c2)C1 (stereo not shown) [Compound 568, 2-[{[4-({4-[(3-ethoxyazetidin-1-yl)methyl]-2-methylphenyl}ethynyl)phenyl]carbonyl}(methyl)amino]-N-hydroxy-N′-methylpropanediamide]
3 | < 10 nM | CCOCc1cc(C#Cc2ccc(C(=O)N(C)[C@@](C)(C(=O)NC)C(=O)NO)cc2)co1 [Compound 612, (2S)-2-[(4-{[5-(ethoxymethyl)furan-3-yl]ethynyl}benzoyl)(methyl)amino]-N-hydroxy-N′,2-dimethylpropanediamide]

Same assay, conditions: inhibitory activity on Pseudomonas aeruginosa LpxC enzyme, class symbols A/B/C; read-out: Enzyme inhibitory activity

Row | IC50 | SMILES
4 | < 10 nM | CNC(=O)C(C(=O)NO)N(C)C(=O)c1ccc(-c2ccc3c(ccn3CCO)c2)cc1 (stereo not shown) [Compound 31, N-hydroxy-2-[{4-[1-(2-hydroxyethyl)-1H-indol-5-yl]benzoyl}(methyl)amino]-N′-methylpropanediamide]
5 | < 10 nM | O=C(NC(C(=O)NO)C(=O)NCC1CCCO1)c1ccc(-c2ccc(OCCO)cc2)cc1 (stereo not shown) [Compound 134, N-hydroxy-2-({[4′-(2-hydroxyethoxy)biphenyl-4-yl]carbonyl}amino)-N′-(tetrahydrofuran-2-ylmethyl)propanediamide]
6 | < 10 nM | CNC(=O)C(C(=O)NO)N(C)C(=O)c1ccc(-c2ccc(NC)c(Cl)c2)cc1 (stereo not shown) [Compound 227, 2-[{[3′-chloro-4′-(methylamino)biphenyl-4-yl]carbonyl}(methyl)amino]-N-hydroxy-N′-methylpropanediamide]
7 | < 10 nM | CN(C)C(=O)CNC(=O)C(NC(=O)c1ccc(-c2ccc(OCCO)cc2)cc1)C(=O)NO (stereo not shown) [Compound 144, N-[2-(dimethylamino)-2-oxoethyl]-N′-hydroxy-2-({[4′-(2-hydroxyethoxy)biphenyl-4-yl]carbonyl}amino)propanediamide]
8 | 10 to 100 nM | CNC(=O)C(C(=O)NO)N(C)C(=O)c1ccc(-c2ccccc2C)cc1 (stereo not shown) [Compound 18, N-hydroxy-N′-methyl-2-{methyl[(2′-methylbiphenyl-4-yl)carbonyl]amino}propanediamide]
9 | 10 to 100 nM | CNC(=O)C(C(=O)NO)N(C)C(=O)c1ccc(-c2ccc(OCCCN(C)CCOC)cc2)cc1 (stereo not shown) [Compound 64, N-hydroxy-2-{[(4′-{3-[(2-methoxyethyl)(methyl)amino]propoxy}biphenyl-4-yl)carbonyl](methyl)amino}-N′-methylpropanediamide]
10 | 10 to 100 nM | CNC(=O)C(C(=O)NO)N(C)C(=O)c1ccc(-c2ccc(NCCCN(C)Cc3ccccc3)cc2)cc1 (stereo not shown) [Compound 97, 2-[{[4′-({3-[benzyl(methyl)amino]propyl}amino)biphenyl-4-yl]carbonyl}(methyl)amino]-N-hydroxy-N′-methylpropanediamide]
11 | 10 to 100 nM | CNC(=O)C(C(=O)NO)N(C)C(=O)c1cnc(-c2ccc3c(c2)OCO3)c(F)c1 (stereo not shown) [Compound 458, 2-[{[6-(1,3-benzodioxol-5-yl)-5-fluoropyridin-3-yl]carbonyl}(methyl)amino]-N-hydroxy-N′-methylpropanediamide]
12 | < 10 nM | CNC(=O)C(C(=O)NO)N(C)C(=O)c1ccc(-c2ccc3c(ccn3CCCCO)c2)cc1 (stereo not shown) [Compound 26, N-hydroxy-2-[{4-[1-(4-hydroxybutyl)-1H-indol-5-yl]benzoyl}(methyl)amino]-N′-methylpropanediamide]
13 | < 10 nM | CNC(=O)C(C(=O)NO)N(C)C(=O)c1ccc(-c2ccc(OCCF)cc2)cc1 (stereo not shown) [Compound 255, 2-[{[4′-(2-fluoroethoxy)biphenyl-4-yl]carbonyl}(methyl)amino]-N-hydroxy-N′-methylpropanediamide]
14 | > 100 nM | CNC(=O)C(C(=O)NO)N(C)C(=O)c1ccc(Cc2ccccc2)cc1 (stereo not shown) [Compound 445, 2-{[(4-benzylphenyl)carbonyl](methyl)amino}-N-hydroxy-N′-methylpropanediamide]
15 | < 10 nM | Cn1ccnc1CNC(=O)C(NC(=O)c1ccc(-c2ccc(OCCO)cc2)cc1)C(=O)NO (stereo not shown) [Compound 156, N-hydroxy-2-({[4′-(2-hydroxyethoxy)biphenyl-4-yl]carbonyl}amino)-N′-[(1-methyl-1H-imidazol-2-yl)methyl]propanediamide]
16 | < 10 nM | CNC(=O)C(C(=O)NO)N(C)C(=O)c1ccc(-c2ccc(NCCCOC)cc2)cc1 (stereo not shown) [Compound 228, N-hydroxy-2-[({4′-[(3-methoxypropyl)amino]biphenyl-4-yl}carbonyl)(methyl)amino]-N′-methylpropanediamide]
17 | < 10 nM | CNC(=O)C(C(=O)NO)N(C)C(=O)c1ccc(-c2ccc3ncccc3c2)cc1 (stereo not shown) [Compound 200, N-hydroxy-N′-methyl-2-{methyl[4-(quinolin-6-yl)benzoyl]amino}propanediamide]

The next lines start with the molecule.

Row | SMILES | IC50
18 | CNC(=O)C(C(=O)NO)N(C)C(=O)c1ccc(-c2ccc(SC)cc2)cc1 (stereo not shown) [Compound 42, N-hydroxy-N′-methyl-2-(methyl {[4′-(methylsulfanyl)biphenyl-4-yl]carbonyl}amino)propanediamide] | < 10 nM
19 | CNC(=O)C(C(=O)NO)N(C)C(=O)c1ccc(C#Cc2ccc(CN(C)C3CCCCC3)cc2)cc1 (stereo not shown) [Compound 327, 2-[({4-[(4-{[cyclohexyl(methyl)amino]methyl}phenyl)ethynyl]phenyl}carbonyl)(methyl)amino]-N-hydroxy-N′-methylpropanediamide] | 10 to 100 nM
20 | CNC(=O)C(C(=O)NO)N(C)C(=O)c1ccc(-c2ccccc2F)c(F)c1 (stereo not shown) [Compound 73, 2-{[(2,2′-difluorobiphenyl-4-yl)carbonyl](methyl)amino}-N-hydroxy-N′-methylpropanediamide] | < 10 nM
21 | CNC(=O)C(C(=O)NO)N(C)C(=O)c1ccc(-c2ccc3c(c2)N(C)C(=O)CO3)cc1 (stereo not shown) [Compound 82, N-hydroxy-N′-methyl-2-{methyl[4-(4-methyl-3-oxo-3,4-dihydro-2H-1,4-benzoxazin-6-yl)benzoyl]amino}propanediamide] | < 10 nM
22 | CNC(=O)C(C(=O)NO)N(C)C(=O)c1ccc(C#Cc2ccc(CCN3CCCOCC3)cc2)cc1 (stereo not shown) [Compound 207, N-hydroxy-N′-methyl-2-{methyl[4-({4-[2-(1,4-oxazepan-4-yl)ethyl]phenyl}ethynyl)benzoyl]amino}propanediamide] | < 10 nM
23 | O=C(NC(C(=O)NO)C(=O)NCc1ccccn1)c1ccc(-c2ccc(OCCO)cc2)cc1 (stereo not shown) [Compound 130, N-hydroxy-2-({[4′-(2-hydroxyethoxy)biphenyl-4-yl]carbonyl}amino)-N′-(pyridin-2-ylmethyl)propanediamide] | < 10 nM
24 | CNC(=O)C(C(=O)NO)N(C)C(=O)c1ccc(C#Cc2ccc(CN3CC(C)(O)C3)cc2)cc1 (stereo not shown) [Compound 321, N-hydroxy-2-[{[4-({4-[(3-hydroxy-3-methylazetidin-1-yl)methyl]phenyl}ethynyl)phenyl]carbonyl}(methyl)amino]-N′-methylpropanediamide] | < 10 nM
25 | CNC(=O)C(C(=O)NO)N(C)C(=O)c1ccc(C2CCCCC2)cc1 (stereo not shown) [Compound 30, 2-[(4-cyclohexylbenzoyl)(methyl)amino]-N-hydroxy-N′-methylpropanediamide] | 10 to 100 nM
26 | CNC(=O)C(C(=O)NO)N(C)C(=O)c1ccc(-c2ccc(CNCC(C)(C)C)cc2)cc1 (stereo not shown) [Compound 74, 2-{[(4′-{[(2,2-dimethylpropyl)amino]methyl}biphenyl-4-yl)carbonyl](methyl)amino}-N-hydroxy-N′-methylpropanediamide] | > 100 nM
27 | CC(C)(C)NC(=O)C(NC(=O)c1ccc(-c2ccc(OCCO)cc2)cc1)C(=O)NO (stereo not shown) [Compound 119, N-tert-butyl-N′-hydroxy-2-({[4′-(2-hydroxyethoxy)biphenyl-4-yl]carbonyl}amino)propanediamide] | > 100 nM
28 | CNC(=O)C(C(=O)NO)N(C)C(=O)c1ccc(-c2ccc(OCCCN3CC(OC)C3)cc2)cc1 (stereo not shown) [Compound 276, N-hydroxy-2-[({4′-[3-(3-methoxyazetidin-1-yl)propoxy]biphenyl-4-yl}carbonyl)(methyl)amino]-N′-methylpropanediamide] | < 10 nM
29 | CCCCOc1ccc(C(=O)N(C)C(C(=O)NC)C(=O)NO)cc1 (stereo not shown) [Compound 35, 2-[(4-butoxybenzoyl)(methyl)amino]-N-hydroxy-N′-methylpropanediamide] | 10 to 100 nM
30 | CCCc1ccc(-c2ccc(C(=O)N(C)C(C(=O)NC)C(=O)NO)cc2)cc1 (stereo not shown) [Compound 182, N-hydroxy-N′-methyl-2-{methyl[(4′-propylbiphenyl-4-yl)carbonyl]amino}propanediamide] | < 10 nM
31 | CNC(=O)C(C(=O)NO)N(C)C(=O)c1ccc(-c2ccc(CN(C)OC)cc2)cc1 (stereo not shown) [Compound 259, N-hydroxy-2-{[(4′-{[methoxy(methyl)amino]methyl}biphenyl-4-yl)carbonyl](methyl)amino}-N′-methylpropanediamide] | 10 to 100 nM
32 | CNC(=O)C(C(=O)NO)N(C)C(=O)c1ccc(-c2ccc(OCCCN3CCN(c4ccccc4)CC3)cc2)cc1 (stereo not shown) [Compound 84, N-hydroxy-N′-methyl-2-[methyl({4′-[3-(4-phenylpiperazin-1-yl)propoxy]biphenyl-4-yl}carbonyl)amino]propanediamide] | < 10 nM
33 | O=C(NC(C(=O)NO)C(=O)Nc1cccnc1)c1ccc(-c2ccc(OCCO)cc2)cc1 (stereo not shown) [Compound 116, N-hydroxy-2-({[4′-(2-hydroxyethoxy)biphenyl-4-yl]carbonyl}amino)-N′-(pyridin-3-yl)propanediamide] | 10 to 100 nM
34 | CNC(=O)C(C(=O)NO)N(C)C(=O)c1ccc(OCc2ccc(OC)cc2)cc1 (stereo not shown) [Compound 319, N-hydroxy-2-[({4-[(4-methoxybenzyl)oxy]phenyl}carbonyl)(methyl)amino]-N′-methylpropanediamide] | 10 to 100 nM
